According to patent publication US20250127896A1, “CHIMERIC TIM4 RECEPTORS AND USES THEREOF” (CERO THERAPEUTICS HOLDINGS, INC., priority 2021, published 2025):

Legend:
Assay type in all cases: cell-based
NSCLC H1975 cells [1] = assay: Cytokine production by CER1236 T cells co-cultured with H1975 cells and osimertinib (Ella); settings: 96 h, E:T 1:4, vs vehicle and untransduced T cells
Protocol: FIG. 40: Graphs showing cytokine production by CER1236 T cells co-cultured with NSCLC H1975 cells with 100 nM osimertinib or vehicle (left to right: granzyme B, TNFα, IL-6, and IFNγ).
Cytokine production was also measured in CER1236 T cells co-cultured with H1975 NSCLC cells pre-treated with osimertinib or vehicle. Ten-thousand NSCLC H1975 cells were cultured for 24 h with 100 nM Osimertinib or vehicle (DMSO) and then co-cultured with CER T cells for 96 h at an E:T of 1:4 in the presence or absence of 4.88 nM Osimertinib or vehicle. Effector:Target ratio was 1:4, and H1975 cells were plated at 10,000 cells/well. Cytokine production was determined by Ella assay.

E7 TCR T cells = assay: APC-like function: E7 peptide-pulsed CER T cells co-cultured with E7 TCR T cells (activation markers, CT Violet proliferation)
Protocol: FIG. 1A: a schematic of pCTX247 (also referred to herein as CER247) and pCTX1107 (also referred to herein as CER1107 or CER1236) chimeric Tim4 receptors and pCTX1107 T cells pulsed with E7 peptides and co-cultured with E7-specific T cells to evaluate their antigen presentation capacity. FIG. 1B: E7-specific proliferation responses were measured by CT Violet dye dilution after 6 days in the presence of autologous CER-T (TLR containing or non-containing CERs) pulsed with E7 peptides. […] All data collected by FACS. Cell tracing show E7 TCR-T cells using an anti-mouse TCRb. E7 TCR-T cells were labeled with CT Violet at the time of co-culture. FIG. 1D: Percentage of proliferated E7 TCR cells in culture among live CD3+ cells determined by flow cytometry based on staining of cell trace violet low E7 TCRb+ cells.
FIG. 2: T cells containing chimeric Tim4 receptors with a TLR intracellular signaling domain added to the CD3ζ signaling domain (and optionally a CD28 signaling domain) are strong stimulators of autologous E7-specific T cell responses. CER-T cells were pulsed with E7 peptide and tested for their capacity to trigger an autologous E7-specific T cell response. CD25, a T cell activation marker, was evaluated on E7 TCR-T cells, 24 hours after CER-T cells were pulsed with E7 peptides. […]

NSCLC H1975 cells [2] = assay: H1975 NSCLC cell growth with CER1236 T cells and osimertinib (Incucyte); settings: 100 nM osimertinib 24 h, then 4.88 nM, E:T 0.25:1, 120 h
Protocol: FIG. 39: Graph showing NSCLC H1975 cell growth for cells pretreated with 100 nM osimertinib or vehicle and then co-cultured with CER1236 T cells.
CER1236 T cells were tested in combination with EGFR tyrosine kinase inhibitor osimertinib on a non-small cell lung cancer (NSCLC) cell line. Ten-thousand NSCLC H1975 cells were cultured for 24 h with 100 nM osimertinib or vehicle (DMSO) and then co-cultured with 2500 CER1236 T cells at an Effector:Target cell ratio of 0.25:1 in the presence or absence of 4.88 nM osimertinib or vehicle. Tumor cell growth was monitored with indicated for 120 h in an Incucyte assay.

CER-1236: chimeric Tim4 receptor: Tim4 binding domain-CD28tm-CD28-CD3z-TLR2 TIR, SEQ ID NO:19; tested as transduced T cells
cytokine production (granzyme B, TNFα, IL-6, IFNγ), combination with osimertinib (NSCLC H1975 cells [1]): increased cytokine production | E7 TCR-T cell surface activation markers CD25 and CD69 upregulated (E7 TCR T cells; 24 hrs following co-culture, controls 23.1%): 41.2% | percentage of dividing E7-TCR-T cells (E7 TCR T cells; by 6 days, controls 8%): 44% | H1975 tumor cell growth, combination with osimertinib (NSCLC H1975 cells [2]): synergizes to inhibit H1975 NSCLC cells in vitro
